# According to PubChem BioAssay (NCI):
#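 Method: 48-hour compound exposure of cells in 96-well plates, five concentrations, linear interpolation of endpoints. GI50 = concentration required for 50% inhibition of growth. TGI: concentration producing complete growth inhibition.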
# Columns and labels:
# Experiment in all cases: NCI tumour cell line growth inhibition, 48 h
# [1] = system: BT-549 breast
# [2] = system: CAKI-1 renal
# [3] = system: UO-31 renal
# [4] = system: HOP-92 NSCLC
# [5] = system: MCF7 breast
# [6] = system: SNB-75 CNS
# [7] = system: OVCAR-4 ovarian
# [8] = system: UACC-257 melanoma
# [9] = system: NCI-H226 lung
# [10] = system: LOX IMVI melanoma
# [11] = system: A498 renal
# [12] = system: DU-145 prostate
# [13] = system: HS 578T breast
# [14] = system: HCT-15 colon
# [15] = system: UACC-62 melanoma
# [16] = system: COLO 205 colon
# [17] = system: OVCAR-8 ovarian
# [18] = system: K-562 leukemia
# [19] = system: HL-60(TB) leukemia
# [20] = system: MALME-3M melanoma
# [21] = system: SR leukemia
# [22] = system: RXF 393 renal
# [23] = system: SW-620 colon
# [24] = system: PC-3 prostate
# [25] = system: HT29 colon
# [26] = system: ACHN renal
# [27] = system: MOLT-4 leukemia
# [28] = system: NCI/ADR-RES ovarian
# [29] = system: NCI-H460 lung
# [30] = system: NCI-H522 lung
compound,measurement,setting,value
CC12OOC(C)(OO1)C2CCC(=O)NCCCNc1ccnc2cc(Cl)ccc12 (centres undefined),GI50,[1],> 20 µM
same,TGI,[1],> 20 µM
same,GI50,[2],3.31 µM
same,TGI,[2],6.07 µM
same,GI50,[3],3.1 µM
same,TGI,[3],5.78 µM
same,GI50,[4],3.34 µM
same,TGI,[4],6.87 µM
same,GI50,[5],8.11 µM
same,TGI,[5],> 20 µM
same,GI50,[6],> 20 µM
same,TGI,[6],> 20 µM
same,GI50,[7],3.19 µM
same,TGI,[7],6.64 µM
same,GI50,[8],9.4 µM
same,TGI,[8],> 20 µM
same,GI50,[9],> 20 µM
same,TGI,[9],> 20 µM
same,GI50,[10],3.06 µM
same,TGI,[10],5.85 µM
same,GI50,[11],> 20 µM
same,TGI,[11],> 20 µM
same,GI50,[12],3.58 µM
same,TGI,[12],6.52 µM
same,GI50,[13],> 20 µM
same,TGI,[13],> 20 µM
same,GI50,[14],4.03 µM
same,TGI,[14],9.17 µM
same,GI50,[15],12.6 µM
same,TGI,[15],> 20 µM
same,GI50,[16],3.69 µM
same,TGI,[16],7.68 µM
same,GI50,[17],> 20 µM
same,TGI,[17],> 20 µM
same,GI50,[18],4.28 µM
same,TGI,[18],10.1 µM
same,GI50,[19],3.6 µM
same,TGI,[19],8.63 µM
same,GI50,[20],3.35 µM
same,TGI,[20],6.31 µM
same,GI50,[21],3.88 µM
same,TGI,[21],8.71 µM
same,GI50,[22],3.69 µM
same,TGI,[22],9.56 µM
same,GI50,[23],4.3 µM
same,TGI,[23],> 20 µM
same,GI50,[24],> 20 µM
same,TGI,[24],> 20 µM
same,GI50,[25],3.86 µM
same,TGI,[25],7.47 µM
same,GI50,[26],3.45 µM
same,TGI,[26],6.22 µM
same,GI50,[27],8.6 µM
same,TGI,[27],> 20 µM
same,GI50,[28],> 20 µM
same,TGI,[28],> 20 µM
same,GI50,[29],12.7 µM
same,TGI,[29],> 20 µM
same,GI50,[30],2.66 µM
